Source: US7838493B2, “Acetylcholinesterase (ACHE)-derived peptide as an inducer of granulocytopoiesis, uses and methods thereof” (priority 2004, dated 2010)

Test system: human CD34+ hematopoietic stem cells
Experiment: Ex vivo expansion of CD34+ cells in liquid culture, flow cytometric immunophenotyping
Assay type: cell-based
Procedure: Mean fluorescence intensity (MFI) served as a measure of AChE-R content in analyzed cells. When multiplied by the percent fractions of AChE-R-positive cells, the MFI values reflected the total content of AChE-R in the analyzed blood cell samples. Myeloid markers of maternal blood cells were analyzed by the following combination of monoclonal antibodies: anti-CD15-FITC (Dako, Glostrup Denmark), anti-CD33-PE (BD Bioscience, Palo Alto, Calif.), anti-CD45-PerCP (BD Bioscience, Palo Alto, Calif.) and anti-CD14-APC (Caltag, Burlingame, Calif.). Corresponding MFI values reflected the amount of receptor on the surface of granulocytes and monocytes. Expanded CD34+ cells were analyzed by 4-color flow cytometry with FITC-conjugated anti-CD15 and PE-conjugated anti-CD33, PerCP-conjugated anti-CD34, and APC-conjugated anti-CD38 (all antibodies purchased from BD Bioscience, Palo Alto, Calif.) using a FACSCalibur with CellQuest software (BD Bioscience, Palo Alto, Calif.). Relevant isotype control antibodies were used to detect non-specific background fluorescence. The total number of expanded cells for each lineage was calculated by multiplying their relative proportions by the number of viable cells in each culture.
PBAN (a negative control insect peptide) [Nijholt (2003) id ibid.] were also used for cell expansion. […] […] At 3-day intervals, cultures were supplemented with the same growth factor(s) and cells were counted by trypan blue exclusion and diluted to maintain cultures at concentrations no higher then 100,000 cells/mL [Pick M. et al. (2002) Exp. Hematol. 30:1079]. Cultured cells were injected into NOD/SCID mice at a concentration of 100,000 or 200,000 together with 100,000 unexpanded CD34+ cells per mouse as indicated.
Peptide controls (ASP40 and PBAN) were used to explore the specificity of this response.

[1] = Table 4b, cortisol (1.2 nM), day 14

Question: With `C[C@]12CCC(=O)C=C1CC[C@@H]1[C@@H]2[C@@H](O)C[C@@]2(C)[C@H]1CC[C@]2(O)C(=O)CO` [Cortisol, cortisol] as the compound, how does the “total number of cells” value (CD34+ cells, 2-week incubation, versus control) read?
Answer: not

Question: What about the Cell expansion index (Table 4a, cultured CD34+ cells, cortisol 1.2 μM, viable cells/ml at day 14 divided by seeded cells (50,000)) of the same compound?
Answer: 1.55 ± 0.07

Question: What about the Cell expansion index (Table 4b, typical CD34+ culture, cortisol (1.2 nM), day 14) of the same compound?
Answer: 1.6

Question: And the “CD33+ CD15+ Granulocytes” value [1]?
Answer: 28.5 cell counts × 10^3

Question: What about the “CD33+ CD15− Immature myeloids” value [1] of the same compound?
Answer: 13.0 cell counts × 10^3

Question: And the “CD33− CD15+ Mature granulocytes” value [1]?
Answer: 15.4 cell counts × 10^3

Question: And the “CD34+ CD33+ Committed myeloids” value [1]?
Answer: 10.6 cell counts × 10^3

Question: What about the “CD34+ CD38+ Committed progenitors” value [1] of the same compound?
Answer: 11.0 cell counts × 10^3
